Results on five molecules are retold here after ChEMBL document CHEMBL3102693 (ACS Med Chem Lett, 2013).

In brackets after ≈: the same amount, converted by molar mass.

Assay [1] deals with Mycobacterium tuberculosis. As to the kind of experiment: Antimicrobial activity against Mycobacterium tuberculosis H37Rv after 10 to 14 days by broth microdilution assay. It is filed as functional. (In general: Dilution methods test growth across graded concentrations, often in twofold steps.)
Assay [2] concerns the target T1, BirA bifunctional protein (Mycobacterium tuberculosis (strain CDC 1551 / Oshkosh), UniProt P96884).
T1 sequence (P96884 whole entry): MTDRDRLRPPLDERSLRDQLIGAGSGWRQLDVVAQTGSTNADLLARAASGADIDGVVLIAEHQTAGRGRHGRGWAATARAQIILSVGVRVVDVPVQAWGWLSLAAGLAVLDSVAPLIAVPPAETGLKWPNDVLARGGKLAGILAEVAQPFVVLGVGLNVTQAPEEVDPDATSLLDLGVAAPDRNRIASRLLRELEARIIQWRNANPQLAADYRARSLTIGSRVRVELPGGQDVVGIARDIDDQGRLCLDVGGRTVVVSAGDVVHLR
In words: Inhibition of biotin binding to Mycobacterium tuberculosis BirA by isothermal titration calorimetry.

Molecule `Nc1nc2ccccc2c2c1ncn2[C@@H]1O[C@H](COS(=O)(=O)NC(=O)CCCC[C@@H]2SC[C@@H]3NC(=O)N[C@@H]32)[C@@H](O)[C@H]1O` registered an MIC90 in assay [1] above 100 µM. In assay [2], this molecule yielded a Kd of 0.23 nM. `Nc1ncnc2c1ncn2[C@@H]1O[C@H](CNS(=O)(=O)NC(=O)CCCC[C@@H]2SC[C@@H]3NC(=O)N[C@@H]32)[C@@H](O)[C@H]1O` gave an MIC90 in assay [1] of 0.78 µM (≈ 0.446 µg/mL). This lies in the sub-micromolar range. As to `Nc1nccc2c1ncn2[C@@H]1O[C@H](COS(=O)(=O)NC(=O)CCCC[C@@H]2SC[C@@H]3NC(=O)N[C@@H]32)[C@@H](O)[C@H]1O`, the MIC90 in assay [1] amounted to 1.56 µM (≈ 0.892 µg/mL). This molecule also registered a Kd in assay [2] of 0.04 nM. Take `CC(C)(C)C#Cc1nc(N)c2ncn([C@@H]3O[C@H](COS(=O)(=O)NC(=O)CCCC[C@@H]4SC[C@@H]5NC(=O)N[C@@H]54)[C@@H](O)[C@H]3O)c2n1`: the MIC90 in assay [1] is above 100 µM. The same molecule came in with a Kd in assay [2] of 11 nM. In the case of `Nc1ncnc2c1ncn2[C@@H]1O[C@H](CCS(=O)(=O)NC(=O)CCCC[C@@H]2SC[C@@H]3NC(=O)N[C@@H]32)[C@@H](O)[C@H]1O`, in assay [1], the MIC90 amounted to 3.12 µM (≈ 1.78 µg/mL). In assay [2], this molecule registered a Kd of 0.1 nM.

The term MIC90 denotes the lowest concentration that inhibits either 90% of growth or 90% of the strains tested, depending on the study. A higher MIC90 goes with lower susceptibility. One may read the Kd as the equilibrium constant for the complex coming apart. Read a high Kd as a looser complex.
